In patent US11332443B2, “Derivatives of halo quinabactin” (THE REGENTS OF THE UNIVERSITY OF CALIFORNIA, priority 2015, dated 2022):

Legend:
Type in all cases: biochemical
PYR1-HAB1 = biological target: T1, PYR1-HAB1 (Arabidopsis thaliana, UniProt O49686); experiment: PP2C activity assay, PYR1-HAB1 inhibition; conditions: for activity at 0.2 µM: 200 nM test compound, 100 nM HAB1 PP2C, 200 nM receptor, read-out: % Inhibition of PYR/PYL-HAB1 at 200 nM: PYR1; for IC50: dose response in triplicate, non-linear regression
T1 construct: 6xHis (N); made in house; host or cells: E. coli BL21[DE3]pLysS (stated for GST-HAB1)
T1 sequence (O49686 1-191): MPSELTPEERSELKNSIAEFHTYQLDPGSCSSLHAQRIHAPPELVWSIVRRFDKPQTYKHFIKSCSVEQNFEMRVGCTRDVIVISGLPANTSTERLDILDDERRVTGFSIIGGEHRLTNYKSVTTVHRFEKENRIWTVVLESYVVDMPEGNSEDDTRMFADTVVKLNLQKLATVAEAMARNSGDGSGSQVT
T1 sequence (Q9CAJ0 23-511 partner): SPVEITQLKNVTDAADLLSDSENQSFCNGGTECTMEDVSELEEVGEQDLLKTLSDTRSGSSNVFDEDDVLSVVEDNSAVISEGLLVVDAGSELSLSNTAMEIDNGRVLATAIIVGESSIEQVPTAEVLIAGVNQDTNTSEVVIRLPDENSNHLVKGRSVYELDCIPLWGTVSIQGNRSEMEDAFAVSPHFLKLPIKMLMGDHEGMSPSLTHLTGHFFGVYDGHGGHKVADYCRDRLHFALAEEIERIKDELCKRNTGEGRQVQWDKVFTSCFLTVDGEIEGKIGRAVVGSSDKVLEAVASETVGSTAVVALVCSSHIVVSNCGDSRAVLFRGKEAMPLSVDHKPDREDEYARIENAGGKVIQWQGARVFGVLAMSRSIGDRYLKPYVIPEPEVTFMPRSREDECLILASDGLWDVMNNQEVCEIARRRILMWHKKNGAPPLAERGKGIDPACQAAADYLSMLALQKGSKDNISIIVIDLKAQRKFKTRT
Excerpt: (§1) The protein HAB1, a type 2 protein phosphatase (PP2C), is inhibited by PYR/PYL proteins in dependence of abscisic acid or other agonists. The potency of an agonist correlates with the level of inhibition of the PP2C, and therefore the IC50 (receptor-HAB1) can be used to compare the relative activity of different chemical analogues. Since inhibition of PP2C correlates to inhibition of seed-germination and increase in plant water-use efficiency, it serves as a powerful tool to quantify biological potential of a chemical acting as an analogue of abscisic acid.
(§2) HAB1 and PYL proteins were expressed and purified as described in Park et al. ((2009) Science 324(5930):1068-1071), with minor modifications. GST-HAB1 was produced by expression in BL21[DE3]pLysS host cells with an expression clone containing the HAB1 cDNA cloned into pGex-2T. Transformed E. coli cells were pre-cultured overnight, transferred to LB medium and cultured at 30° C. to culture A600 of ˜0.5 OD units. The culture was then cooled on ice and MnCl2 added to 4 mM and IPTG added to 0.3 mM. After 16 hours incubation at 15° C., cells were harvested and recombinant proteins were purified on glutathione agarose as described in Park et al. To obtain 6×His-PYL receptor fusion proteins, we used expression constructs previously described by Okamoto et al. 2013, (PNAS 110(29): 12132-12137).
(§3) PP2C activity assays using recombinant receptors and PP2Cs were carried out as follows: purified proteins were pre-incubated in 160 μl assay buffer containing (100 mM Tris-HCl-pH7.9, 100 mM NaCl, 3 μg bovine serum albumin and 0.1% 2-mercaptoethanol), 1 mM MnCl2 with carrier solvent (DMSO), quinabactin or quinabactin analogs (compounds of the present invention) for 30 minutes at room temperature. Reactions were started by adding 40 μL of a reaction solution containing 25 mM 4-nitrophenyl phosphate in assay buffer, after which absorbance measurements were immediately collected (405 nm) using a Wallac plate reader. […] Inhibition is indicated by reduced PP2C activity, which is expressed as a percentage of the control PP2C activity values that were obtained from assays containing carrier solvent instead but no test compound.

PYL2-HAB1 = biological target: T2, PYL2-HAB1 (Arabidopsis thaliana, UniProt O80992); experiment: PP2C activity assay, PYL2-HAB1 inhibition; conditions: for percent inhibition at 0.2 µM: 200 nM test compound, 100 nM HAB1 PP2C, 200 nM receptor, read-out: % Inhibition of PYR/PYL-HAB1 at 200 nM: PYL2; for IC50: dose response in triplicate, non-linear regression
T2 construct: 6xHis (N); made in house; host or cells: E. coli BL21[DE3]pLysS (stated for GST-HAB1)
T2 sequence (O80992 1-190): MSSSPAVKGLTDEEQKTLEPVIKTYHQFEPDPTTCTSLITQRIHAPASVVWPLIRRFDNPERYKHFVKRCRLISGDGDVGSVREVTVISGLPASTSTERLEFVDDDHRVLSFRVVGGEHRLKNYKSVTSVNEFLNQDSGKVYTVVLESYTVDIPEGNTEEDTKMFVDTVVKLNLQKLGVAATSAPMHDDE
T2 sequence (Q9CAJ0 23-511 partner): T1 sequence (Q9CAJ0 23-511 partner)
Excerpt: as §1, §2, §3

PYL1-HAB1 = biological target: T3, PYL1-HAB1 (Arabidopsis thaliana, UniProt Q8VZS8); experiment: PP2C activity assay, PYL1-HAB1 inhibition; conditions: 200 nM test compound, 100 nM HAB1 PP2C, 200 nM receptor; read-out: % Inhibition of PYR/PYL-HAB1 at 200 nM: PYL1
T3 construct: 6xHis (N); made in house; host or cells: E. coli BL21[DE3]pLysS (stated for GST-HAB1)
T3 sequence (Q8VZS8 1-221): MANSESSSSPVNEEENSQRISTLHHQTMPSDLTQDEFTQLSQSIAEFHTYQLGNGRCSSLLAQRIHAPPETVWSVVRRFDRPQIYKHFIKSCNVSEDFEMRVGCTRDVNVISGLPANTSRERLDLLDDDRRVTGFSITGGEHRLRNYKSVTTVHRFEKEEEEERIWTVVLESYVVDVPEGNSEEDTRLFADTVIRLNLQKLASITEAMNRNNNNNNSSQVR
T3 sequence (Q9CAJ0 23-511 partner): T1 sequence (Q9CAJ0 23-511 partner)
Excerpt: as §1, §2
PP2C activity assays using recombinant receptors and PP2Cs were carried out as follows: purified proteins were pre-incubated in 160 μl assay buffer containing (100 mM Tris-HCl-pH7.9, 100 mM NaCl, 3 μg bovine serum albumin and 0.1% 2-mercaptoethanol), 1 mM MnCl2 with carrier solvent (DMSO), quinabactin or quinabactin analogs (compounds of the present invention) for 30 minutes at room temperature. Reactions were started by adding 40 μL of a reaction solution containing 25 mM 4-nitrophenyl phosphate in assay buffer, after which absorbance measurements were immediately collected (405 nm) using a Wallac plate reader. Reactions contained 100 nM HAB1 PP2C and 200 nM receptor and 200 nM test compound. Inhibition is indicated by reduced PP2C activity, which is expressed as a percentage of the control PP2C activity values that were obtained from assays containing carrier solvent instead but no test compound.

| activity at 0.2 µM (PYR1-HAB1) [%] | IC50 (PYR1-HAB1) [nM] | percent inhibition at 0.2 µM (PYL2-HAB1) [%] | IC50 (PYL2-HAB1) [nM] | activity at 0.2 µM (PYL1-HAB1) [%] | SMILES |
| --- | --- | --- | --- | --- | --- |
|  | 39.6 |  | 11 |  | CCN1C(=O)CC(C)c2cc(NS(=O)(=O)Cc3ccc(C)cc3)cc(F)c21 (stereo not shown) [HQ30, N-(1-ethyl-8-fluoro-4-methyl-2-oxo-3,4-dihydroquinolin-6-yl)-1-(p-tolyl)methanesulfonamide] |
|  | 164 |  | 52 |  | C=CCN1C(=O)CC(C)c2cc(NS(=O)(=O)Cc3ccc(C)cc3)cc(F)c21 (stereo not shown) [HQ31] |
|  | 408 |  | 40 |  | Cc1ccc(CS(=O)(=O)Nc2cc(F)c3c(c2)C(C)CC(=O)N3C(C)C)cc1 (stereo not shown) [HQ32] |
|  | 204 |  | 61 |  | C=CCN1C(=O)CC(C)c2cc(NS(=O)(=O)Cc3ccc(CC)cc3)cc(F)c21 (stereo not shown) [HQ33] |
|  | 462 |  | 26 |  | CCc1ccc(CS(=O)(=O)Nc2cc(F)c3c(c2)C(C)CC(=O)N3C(C)C)cc1 (stereo not shown) [HQ34] |
|  | 37 |  | 12 |  | CCc1ccc(CS(=O)(=O)Nc2cc(F)c3c(c2)C(C)CC(=O)N3CC)cc1 (stereo not shown) [HQ35] |
|  | 126 |  | 32 |  | C=CCN1C(=O)CC(C)c2cc(NS(=O)(=O)Cc3ccc(COC)cc3)cc(F)c21 (stereo not shown) [HQ36] |
|  | 103 |  | 26 |  | CCN1C(=O)CC(C)c2cc(NS(=O)(=O)Cc3ccc(COC)cc3)cc(F)c21 (stereo not shown) [HQ38] |
|  | 589 |  | 247 |  | CCN1C(=O)CC(C)c2cc(NS(=O)(=O)Cc3ccc(C#N)cc3F)cc(F)c21 (stereo not shown) [HQ42] |
|  | > 10000 |  | 2010 |  | CCN1C(=O)CC(C)c2cc(NS(=O)(=O)Cc3ccc(Cl)cc3Cl)cc(F)c21 (stereo not shown) [HQ43] |
|  | 2370 |  | 250 |  | CCN1C(=O)CC(C)c2cc(NS(=O)(=O)Cc3ccc(C(F)(F)F)cc3)cc(F)c21 (stereo not shown) [HQ44] |
|  | 56 |  | 23 |  | CCN1C(=O)CC(C)c2cc(NS(=O)(=O)Cc3ccc(C)cc3F)cc(F)c21 (stereo not shown) [HQ48] |
|  | 405 |  | 112 |  | CCN1C(=O)CC(C)c2cc(NS(=O)(=O)Cc3ccc(C#N)cc3)cc(F)c21 (stereo not shown) [HQ49] |
|  | > 10000 |  | 4470 |  | CCN1C(=O)CC(C)c2cc(NS(=O)(=O)Cc3ccc(C)cc3Br)cc(F)c21 (stereo not shown) [HQ50] |
|  | > 10000 |  | 930 |  | CCN1C(=O)CC(C)c2cc(NS(=O)(=O)Cc3ccc(C)cc3C)cc(F)c21 (stereo not shown) [HQ51] |
|  | 444 |  | 46 |  | CCN1C(=O)CC(C)c2cc(NS(=O)(=O)Cc3ccc(C)c(F)c3)cc(F)c21 (stereo not shown) [HQ52] |
|  | 153 |  | 160 |  | CCN1C(=O)CC(C)c2cc(NS(=O)(=O)Cc3ccc(C)cn3)cc(F)c21 (stereo not shown) [HQ53] |
|  | 512 |  | 234 |  | CCN1C(=O)CC(C)c2cc(NS(=O)(=O)Cc3ccc(Cl)cn3)cc(F)c21 (stereo not shown) [HQ54] |
|  | > 10000 |  | 1600 |  | CCN1C(=O)CC(C)c2cc(NS(=O)(=O)Cc3ccc(C)nc3)cc(F)c21 (stereo not shown) [HQ55] |
|  | 1250 |  | 486 |  | CCN1C(=O)CC(C)c2cc(NS(=O)(=O)Cc3ccc(Cl)nc3)cc(F)c21 (stereo not shown) [HQ56] |
|  | 953 |  | 94 |  | CCN1C(=O)CC(C)c2cc(NS(=O)(=O)Cc3ccc(Cl)s3)cc(F)c21 (stereo not shown) [HQ57] |

The next lines start with the compound.

| SMILES | activity at 0.2 µM (PYR1-HAB1) [%] | IC50 (PYR1-HAB1) [nM] | percent inhibition at 0.2 µM (PYL2-HAB1) [%] | IC50 (PYL2-HAB1) [nM] | activity at 0.2 µM (PYL1-HAB1) [%] |
| --- | --- | --- | --- | --- | --- |
| CCCN1C(=O)CCc2cc(NS(=O)(=O)Cc3ccc(C)cc3)cc(F)c21 [HQ1] | 14.7 | 37.5 | 28 | 42 | 11.8 |
| CCCN1C(=O)CCc2cc(NS(=O)(=O)Cc3ccc(C)cc3)cc(Cl)c21 [HQ2] | 37.9 | 47.7 | 38.9 | 74 | 20.3 |
| CCCN1C(=O)CCc2cc(NS(=O)(=O)Cc3ccccc3F)cc(F)c21 [HQ3] | 65.7 |  | 78.3 |  | 46.7 |
| CCCN1C(=O)CCc2cc(NS(=O)(=O)Cc3ccc(F)cc3F)cc(F)c21 [HQ4] | 61.5 |  | 69.3 |  | 46.1 |
| CCCN1C(=O)CCc2cc(NS(=O)(=O)Cc3ccc(Br)cc3F)cc(F)c21 [HQ5] | 42.9 |  | 51.8 |  | 18.2 |
| CCCN1C(=O)CCc2cc(NS(=O)(=O)Cc3cc(F)ccc3F)cc(F)c21 [HQ6] | 57.9 |  | 57.4 |  | 35.1 |
| CCCN1C(=O)CCc2cc(NS(=O)(=O)Cc3cccc(F)c3F)cc(F)c21 [HQ7] | 53.9 |  | 67.4 |  | 31 |
| CCCN1C(=O)CCc2cc(NS(=O)(=O)Cc3ccc(F)cc3Br)cc(F)c21 [HQ8] | 107 |  | 92 |  | 87.4 |
| C=CCN1C(=O)CCc2cc(NS(=O)(=O)Cc3ccc(C)cc3)cc(F)c21 [HQ28] |  | 62.3 |  | 401 |  |
| CCN1C(=O)CCc2cc(NS(=O)(=O)Cc3ccc(C)cc3)cc(F)c21 [HQ29] |  | 17.2 |  | 83 |  |
| COCc1ccc(CS(=O)(=O)Nc2cc(F)c3c(c2)C(C)CC(=O)N3C(C)C)cc1 (stereo not shown) [HQ37] |  | 227 |  | 33 |  |
| Cc1ccc(CS(=O)(=O)Nc2cc(F)c3c(c2)C(C)CC(=O)N3C2CC2)cc1 (stereo not shown) [HQ39] |  | 1260 |  | 77 |  |
| CCCN1C(=O)CCc2cc(NS(=O)(=O)Cc3ccc(C)cc3)cc(Br)c21 [HQ40] |  | 165 |  | 239 |  |
| CCCN1C(=O)CCc2cc(NS(=O)(=O)Cc3ccc(C)cc3)cc(C#N)c21 [HQ41] |  | 967 |  | 1450 |  |
| CCN1C(=O)CC(C)c2cc(NS(=O)(=O)c3ccccc3)cc(F)c21 (stereo not shown) [HQ45] |  | > 10000 |  | 7730 |  |
| CCCN1C(=O)CCc2c1ccc(NS(=O)(=O)Cc1ccc(C)cc1)c2F [HQ46] |  | 694 |  | 1460 |  |
| CCCN1C(=O)CCc2cc(NS(=O)(=O)Cc3ccc(C)cc3)c(F)cc21 [HQ47, N-(7-fluoro-2-oxo-1-propyl-3,4-dihydroquinolin-6-yl)-1-(p-tolyl)methanesulfonamide] |  | 172 |  | 182 |  |
